Experimental data as given in patent US8252737B2, “Antimicrobial peptides and methods of use” (priority 2004, dated 2012).
Values after ≈ are worked out from the molar mass of the structure shown.

Assays:
[1] = Circular dichroism spectroscopy of helical structure (benign buffer and 50% TFE); assay type: physicochemical; conditions: 25° C.
Procedure: To determine the secondary structure of peptides in different environments, circular dichroism (CD) spectra of the peptide analogs were measured under physiologically related pH and ionic strength (100 mM KCl, 50 mM aq. PO4, pH 7 referred to as benign conditions) and also in 50% TFE to mimic the hydrophobic environment of the membrane. […] On the non-polar face, the native L-Val residue was critical in maintaining α-helical structure. […] Even the substitution with L-Ala, which is known to have the highest α-helical propensity of all 20 amino acids (34), could not stabilize the α-helical structure. […] It is noteworthy that, on the non-polar face, the magnitude of the helical content of L-peptides in benign buffer was related to the hydrophobicity of the substituting amino acids, i.e., NLL>NVL>NAL>NSL, NKL, again showing the importance of hydrophobicity on the non-polar face in maintaining the α-helical structure. […] However, whether L- or D-substitutions were made on the non-polar face, high helical structure could be induced by the hydrophobic environment of 50% TFE, a mimic of the membrane's hydrophobicity and α-helix inducing ability (Table 3).
To determine the secondary structure of the D-enantiomeric peptides in different environments, CD spectra of the peptide analogs were measured under benign conditions (100 mM KCl, 50 mM KH2PO4/K2HPO4, pH 7.4, referred to as KP buffer) and also in 50% trifluoroethanol (TFE) to mimic the hydrophobic environment of the membrane. […] However, in the presence of 50% TFE, all three L-peptides were fully folded α-helical structures with similar ellipticities and helicity (Table 4).
Characterization of Helical Structure—The mean residue molar ellipticities of peptides were determined by circular dichroism (CD) spectroscopy, using a Jasco J-720 spectropolarimeter (Jasco, Easton, Md.), at 25° C. under benign conditions (50 mM KH2PO4/K2HPO4/100 mM KCl, pH 7), as well as in the presence of an α-helix inducing solvent, 2,2,2-trifluoroethanol (TFE) (50 mM KH2PO4/K2HPO4/100 mM KCl, pH 7 buffer/50% TFE). A 10-fold dilution of a ˜500 μM stock solution of the peptide analogs was loaded into a 0.02 cm fused silica cell and its ellipticity scanned from 190 to 250 nm. The values of molar ellipticities of the peptide analogs at a wavelength of 222 nm were used to estimate the relative α-helicity of the peptides.

[2] = RP-HPLC temperature profiling (hydrophobicity and self-association/dimerization parameter PA); assay type: physicochemical
Procedure: The retention time data for the peptides is shown in Table 5 which records retention times at 5° C., the maximal retention times and retention times at 80° C. during the temperature profiling. Temperatures of 5° C. and 80° C. were the lower and upper temperature limits of temperature profiling in RP-HPLC, representing dimerization of the peptides at 5° C. and the monomerization of peptides at 80° C. due to dissociation of the dimers. The maximal retention times represent the threshold points at which peptides transform from dimeric to monomeric form. Among the non-polar face substituted peptides, peptides with more hydrophobic substitutions (whether L- or D-amino acid substitutions) were more retained during RP-HPLC, i.e., peptides were eluted in the order of Lys, Gly, Ser, Ala, Val and Leu (Table 5). In addition, on the non-polar face, the L-analogs were always more retained than the D-diastereomers (Table 5, FIG. 5). […] In contrast, on the polar face, the elution order of peptides was not correlated with the order of amino acid side-chain hydrophobicity, e.g., PAL and PSL were more retained than PVL (Table 5); PSD was the most retained peptide among the D-amino acid substituted analogs on the polar face (Table 5).
The ability of the D-peptides to self-associate was determined by RP-HPLC temperature profiling. […] As expected, L- and D-peptide enantiomers were totally inseparable over this temperature range, since each pair of peptides is identical in sequence and must adopt identical conformations on interacting with the reversed-phase matrix, whether in an all-L- or all-D-conformation. RP-HPLC retention behavior has been frequently utilized to represent overall peptide hydrophobicity (53, 26). In the present study, the hydrophobicity of the three peptide pairs is in the order V681/D-V681>[…]>NKL/D-NKD (Table 4), which agrees with the change in hydrophobicity of the substitutions at position 13 in order of the most hydrophobic to the least hydrophobic amino acid residue (Val in V681>Ala in NA>Lys in NK) (54). […] For example, the retention times of peptides V681/D-V681 increase with increasing temperature (up to ˜30° C.) followed by a retention time decrease with a further temperature increase. […] Since peptide C is a monomeric random coil peptide in both aqueous and hydrophobic media, its retention behavior over the temperature range 5° C. to 80° C. represents only general temperature effects on peptide retention behavior, i.e., a linear decrease in peptide retention time with increasing temperature due to greater solute diffusivity and enhanced mass transfer between the stationary and mobile phases at higher temperatures (55). Thus, after normalization to the retention times of peptide C, the retention behavior of the peptides represents only peptide self-association ability. Note that the higher the PA value, the greater the self-association ability. […] From Table 4, it is also clear that the peptide retention times at 80° C. are dramatically lower than those at 5° C.
Elution times during RP-HPLC have frequently been utilized as a measure of relative hydrophobicity of peptide analogs (26, 31). In the current study, peptide analogs differed only by a single amino acid substitution on either the non-polar face or the polar face of V681; thus, the retention time data in Table 5 can be considered to reflect the hydrophobicity difference between peptide analogs. In order to more easily visualize the variation in hydrophobicity of the peptide analogs, the retention time data in Table 5 were normalized relative to that of the native peptide V681 at 5° C. and 80° C., respectively. Hydrophobicity relative to the native peptide V681 indicates an increase or decrease of the apparent peptide hydrophobicity with the different amino acid substitutions on the polar or non-polar face. […]

human erythrocytes [3] = experiment: Hemolytic activity (MHC), Protocol A, 12 hours; conditions: incubation for 12 hours at 37° C. (Tables 7 and 8)
Procedure: (§1) Measurement of Hemolytic Activity—Protocol A: Peptide samples were added to 1% human erythrocytes in phosphate buffered saline (0.08M NaCl; 0.043M Na2PO4; 0.011M KH2PO4) and reactions were incubated at 37° C. for 12 hours in microtiter plates. Peptide samples were diluted 2 fold in order to determine the concentration that produced no hemolysis. […] Hemoglobin release was determined spectrophotometrically at 562 nm. The hemolytic titer was the highest 2-fold dilution of the peptide that still caused release of hemoglobin from erythrocytes. The control for no release of hemoglobin was a sample of 1% erythrocytes without any peptide added. […] Peptide samples were diluted 2 fold in order to determine the concentration that produced no hemolysis. […] Hemoglobin release was determined spectrophotometrically at 570 nm. The hemolytic titer was the highest 2-fold dilution of the peptide that still caused release of hemoglobin from erythrocytes. The control for no release of hemoglobin was a sample of 1% erythrocytes without any peptide added.

human erythrocytes [4] = experiment: Hemolytic activity (MHC), Protocol B, 18 hours; conditions: maximal peptide concentration showing no hemolysis after 18 hours, hRBC, Table 14
Procedure: In order to evaluate the biological activities of the D-enantiomeric peptides, namely D-NAL and D-NKD, the hemolytic activity of the peptides against human erythrocytes was determined as the maximal peptide concentration that produces no hemolysis after 18 hours of incubation at 37° C.
as §1

[5] = system: Pseudomonas aeruginosa strains; conditions: for MIC (μg/ml) CP 204: Pseudomonas aeruginosa clinical isolate CP 204; for MIC (μg/ml) M 2: Pseudomonas aeruginosa clinical isolate M 2; for MIC (μg/ml) PA 14: Pseudomonas aeruginosa clinical isolate PA 14; for MIC (μg/ml) PAK: Pseudomonas aeruginosa clinical isolate PAK; for MIC (μg/ml) PAO 1: Pseudomonas aeruginosa clinical isolate PAO 1; for MIC (μg/ml) WR 5: Pseudomonas aeruginosa clinical isolate WR 5; for MIC (μg/ml) GM: geometric mean of the MIC values for the 6 Pseudomonas aeruginosa clinical isolates
Procedure: Pseudomonas aeruginosa strains used in this study are a diverse group of clinical isolates from different places in the world. […] The geometric mean MIC values from six Pseudomonas aeruginosa strains were calculated to provide an overall evaluation of antimicrobial activity of these peptides against Pseudomonas aeruginosa. Fold improvement was calculated by comparing the geometric mean MIC value of each peptide to that of the parent peptide V681.
Measurement of Antimicrobial Activity—Minimal inhibitory concentrations (MICs) were determined using a standard microtiter dilution method in LB (Luria-Bertani) no-salt medium (10 g of tryptone and 5 g of yeast extract per liter). Briefly, cells were grown overnight at 37° C. in LB and diluted in the same medium. […] Plates were incubated at 37° C. for 24 hours and MICs determined as the lowest peptide concentration that inhibited growth. Alternatively, minimal inhibitory concentrations were determined using a standard microtiter dilution method in a Mueller-Hinton (MH) medium. Briefly, cells were grown overnight at 37° C. in MH broth and diluted in the same medium. […] Plates were incubated at 37° C. for 24 hours and MICs determined as the lowest peptide concentration that inhibited growth. However, for MIC determination of Pseudomonas aeruginosa clinical isolates, brain heart infusion (BH1) medium was used instead of MH broth. In addition, the bacteria were diluted to a final inoculum of 1×10^6 colony-forming units/ml.
For the Leu-substituted peptides, the hemolytic activity against human erythrocytes was determined as the maximal peptide concentration that produces no hemolysis after 18 hours of incubation at 37° C. Antimicrobial activity of the peptides was determined on a diverse group of Pseudomonas aeruginosa clinical isolates. […] The geometric mean MIC values from six Pseudomonas strains in Table 14 were calculated to provide an overall evaluation of antimicrobial activity of the peptides with different hydrophobicities.

| Compound | % helix 50% TFE ([1]; 50% TFE, relative to NAL in 50% TFE) | [θ]222 Benign ([1]; benign buffer (100 mM KCl, 50 mM PO4 pH 7.0)) | [θ]222 50% TFE ([1]; benign buffer diluted 1:1 (v/v) with TFE) | % helix Benign ([1]; benign buffer, relative to NAL in 50% TFE) | tR (min) 5° C. ([2]; RP-HPLC retention time at 5° C. during temperature profiling (measure of hydrophobicity)) | tR (min) 80° C. ([2]; RP-HPLC retention time at 80° C. during temperature profiling) | tR (min) Max ([2]; maximal RP-HPLC retention time during temperature profiling 5-80° C.) | PA (min) association parameter ([2]; maximal retention time difference relative to control peptide C within 5-80° C.) | ΔtR (X-PSL) (min) 5° C. ([2]; polar face substitutions, retention time difference relative to native peptide V681 (PSL) at 5° C., relative hydrophobicity) | ΔtR (X-PSL) (min) 80° C. ([2]; polar face substitutions, retention time difference relative to native peptide V681 (PSL) at 80° C., relative hydrophobicity) | minimal hemolytic concentration (MHC) (human erythrocytes [3]) | Hemolytic activity MHC (human erythrocytes [4]) | MIC (μg/ml) CP 204 [5] | MIC (μg/ml) M 2 [5] | MIC (μg/ml) PA 14 [5] | MIC (μg/ml) PAK [5] | MIC (μg/ml) PAO 1 [5] | MIC (μg/ml) WR 5 [5] | MIC (μg/ml) GM [5] |
| --- | --- | --- | --- | --- | --- | --- | --- | --- | --- | --- | --- | --- | --- | --- | --- | --- | --- | --- | --- |
| Ac-KWKSFLKTFKVAVKTVLHTALKAISS-NH2 [PVL] | 80% | −7,550 deg · cm^2 · dmol^−1 | −23,050 deg · cm^2 · dmol^−1 | 26% | 47.83 min | 46.18 min | 49.93 min | 3.91 min | -0.27 min | 0.35 min | 7.8 µg/mL |  |  |  |  |  |  |  |  |
| CC[C@H](C)[C@H](NC(=O)[C@H](CC(C)C)NC(=O)[C@H](CCCCN)NC(=O)[C@H](CC(C)C)NC(=O)[C@H](C)NC(=O)[C@@H](NC(=O)[C@H](Cc1c[nH]cn1)NC(=O)[C@H](CC(C)C)NC(=O)[C@@H](NC(=O)[C@@H](NC(=O)[C@H](CCCCN)NC(=O)[C@H](CCCCN)NC(=O)[C@H](CC(C)C)NC(=O)[C@H](CO)NC(=O)[C@H](CCCCN)NC(=O)[C@H](Cc1ccccc1)NC(=O)[C@@H](NC(=O)[C@H](CCCCN)NC(=O)[C@H](CC(C)C)NC(=O)[C@H](Cc1ccccc1)NC(=O)[C@H](CO)NC(=O)[C@H](CCCCN)NC(=O)[C@H](Cc1c[nH]c2ccccc12)NC(=O)[C@H](CCCCN)NC(C)=O)[C@@H](C)O)[C@@H](C)O)C(C)C)[C@@H](C)O)C(=O)N[C@@H](CO)C(=O)N[C@@H](CO)C(N)=O [A12L/A23L] |  |  |  |  |  |  |  |  |  |  |  | 15.6 µg/mL | 7.8 µg/mL (≈ 2.54 µM) | 31.3 µg/mL (≈ 10.2 µM) | 62.5 µg/mL (≈ 20.3 µM) | 15.6 µg/mL (≈ 5.07 µM) | 15.6 µg/mL (≈ 5.07 µM) | 250.0 µg/mL (≈ 81.3 µM) | 31.2 µg/mL (≈ 10.1 µM) |
| Ac-KWKSFLKTFKSAKKTVLHTALKLISS-NH2 [Peptide A23L] |  |  |  |  |  |  |  |  |  |  |  | 62.5 µg/mL | 15.6 µg/mL | 31.3 µg/mL | 31.3 µg/mL | 62.5 µg/mL | 31.3 µg/mL | 62.5 µg/mL | 35.1 µg/mL |
